Test results: patent US10017524B2, “Compound and pharmaceutical composition for neuropsychological disorder or malignant tumor” (KYOTO UNIVERSITY, priority 2012, dated 2018)

Key:
[1] = tested on: phosphorylation of tau protein in the brain; assay: Inhibition of stress-induced phosphorylation of tau protein in the brain; assay type: in vivo; settings: mice, 100 mg/kg before stress (ice-cold water 5 minutes), brain tissue western blot
Description: The inhibitory activity of the compounds 1 and 2 on the phosphorylation of tau protein in the brain was evaluated. In the evaluation, a system was used which induced the phosphorylation of tau protein by imposing stress on mice (i.e., bathing the mice in ice-cold water for 5 minutes).

Oral absorbability = assay type: in vivo, B6J mouse; settings: mouse, oral administration, 100 mg/kg, 5% gum arabic, plasma
Description: The oral absorbability of the compound 1 was evaluated under the following conditions.

[2] = tested on: retinoblastoma cell lines WERI; assay: Inhibition of growth of cancer cells (Alamar Blue); assay type: cell-based
Description: (§1) Specifically, the cells were seeded on a 24 Well plate, and the compounds at a predetermined concentration were added. After cultivation for 5 days, the number of cells was calculated by detecting the fluorescence intensity with Alamar Blue. The culture medium containing the compounds was replaced every day. FIGS. 10 to 12 show an example of the results.

[3] = Oral absorbability and intracerebral transferability (plasma and brain tissue concentration); assay type: in vivo; settings: ICR mouse, 100 mg/kg; for Kp / half-life: male; for Kp: brain tissue / plasma, read-out: Brain tissue/blood ratio (B/P: mL/g); for half-life: plasma and brain tissue, read-out: Half-life in blood and in brain tissue
Description: The oral absorbability and the intracerebral transferability of the compounds 1 and 2 were evaluated under the following conditions. FIG. 6 and Table 1 show an example of the results.
Experimental animal: 7-week-old male ICR mouse, oral administration
Administered vehicle: 0.5% carboxymethylcellulose
Compound dosage: 100 mg/kg
FIG. 6 and Table 1 show an example of the results of measuring a plasma concentration and a brain tissue concentration after oral administration of the compounds 1 and 2. As shown in FIG. 6 and Table 1, the results confirmed that the compounds 1 and 2 had both oral absorbability and intracerebral transferability.

[4] = tested on: phosphorylation of a threonine residue at position 212 of tau protein by DYRK1A protein; assay: Inhibitory activity on phosphorylation of tau protein in cultured cells expressing tau and DYRK1A (western blot, Thr212); assay type: cell-based; settings: phospho-Thr212 tau
Description: The inhibitory activity of the compounds synthesized in the production examples on the phosphorylation of tau protein was evaluated by an evaluation system using the following cultured cells.
The cultured cells that can induce the expressions of tau protein and DYRK1A protein individually and that allow the phosphorylation of the tau protein to be evaluated depending on the activity of the DYRK1A protein were used in the evaluation system. […] Therefore, the inhibitory activity on the phosphorylation of the tau protein can be evaluated by inducing the expressions of both the tau protein and the DYRK1A protein, and evaluating the degree of phosphorylation of a threonine residue at position 212 of the tau protein.
The compounds 1, 4, and 6 to 9 (10 μM) were added to the evaluation system, and the phosphorylation of the tau protein was detected with the antibody that specifically recognizes the phosphorylation of a threonine residue at position 212 of the tau protein. […] The “control” represents the result of adding no compound.
The inhibitory activity of the compounds 1 and 2 on the phosphorylation of tau protein was evaluated in the same manner as the Experimental example 1.
(§2) The “control” represents the result of adding no compound.
The inhibitory activity of the compounds 3, 6, and 9 to 15 on the phosphorylation of tau protein was evaluated in the same manner as the experimental example 1. FIGS. 7 to 9 show an example of the results.

[5] = Intracerebral transferability after caudal vein administration; assay type: in vivo; settings: male, Wistar, intravenous, rat, 2 mg/head
Description: The intracerebral transferability of the compound 1 was evaluated under the following conditions. […] In other words, the intracerebral transferability of the compound 1 was confirmed.
Experimental animal: 8-week-old male Wistar rat (about 300 g), caudal vein administration
Administered vehicle: 20% PPG/8% tween 80/saline (2 mL/head)
Compound dosage: 2 mg/head
Sampling time: 3 minutes after administration for plasma; 7 minutes after administration for cerebrospinal fluid

DYRK1A = DYRK1A (Homo sapiens, UniProt Q13627); assay: DYRK1A inhibitory capacity in vitro; assay type: biochemical
Excerpt: as §2

[6] = tested on: memory and learning disabilities induced by amyloid-β peptide (25-35); assay: Remedial action on memory and learning disabilities induced by amyloid-β peptide (water maze, probe test); assay type: in vivo, Swiss mice; settings: mice, amyloid-β icv, 100 mg/kg twice a day
Description: The remedial action of the compound 2 on memory and learning disabilities was evaluated. In the evaluation, amyloid-β peptide was administered into the cerebral ventricles of mice, and an evaluation system that induces memory and learning disabilities was used (Maurice et al., 1996). The tests were performed using 6-week-old male Swiss mice, which were divided into groups of 12 (n=12). Amyloid-β peptide (25-35, sequence: Gly-Ser-Asn-Lys-Gly-Ala-Ile-Ile-Gly-Leu-Met) (SEQ ID NO: 1) or scrambled amyloid-β (25-35, sequence: Ala-Lys-Ile-Gly-Asn-Ser-Ile-Gly-Leu-Met-Gly) (SEQ ID NO: 2) which was used as control peptide, was dissolved in distilled water, and each of the peptide solutions was incubated at 37° C. for 4 days.
The compound 2 for medication was dissolved in DMSO, and then diluted with 0.5% methylcellulose, thereby preparing a 10 mg/mL solution. […]
In order to evaluate a reference memory, water maze was performed three times a day using a circular pool (140 cm in diameter and 40 cm in height) and a platform (10 cm in diameter) between the 8th day and the 12th day of the tests. […] During the recording, the total time the mice spent in one-fourth of the area of the circle, including the place where the platform had been located until the previous day, was recorded. […]

[7] = tested on: PC-9-GR-step lines (gefitinib-resistant sub-lines of PC-9); assay: Growth inhibition, microscopic observation; assay type: cell-based, human; settings: microscope
PC-9-GR-high lines = assay: Growth inhibition, microscopic observation; assay type: cell-based, human; settings: microscope
[8] = tested on: human lung adenocarcinoma-derived cell lines (PC-9); assay: Growth inhibition, microscopic observation; assay type: cell-based; settings: PC-9 lines, microscope
[9] = tested on: MDA-MB-468 human breast cancer cells (triple-negative); assay: Growth inhibition, adherent and non-adherent culture (Alamar Blue); assay type: cell-based; settings: MDA-MB-468, cells cultured to prevent adhering
Description: as §1
(§3) In addition, the effect was also confirmed when the target cells were cultured to prevent them from adhering to each other.

[10] = tested on: MDA-MB-453 human breast cancer cells (triple-negative); assay: as above; assay type: cell-based; settings: MDA-MB-453, cells cultured to prevent adhering
Description: as §1, §3

[11] = compounds of 10 μM, cells expressing tau and DYRK1A

SMILES: CCN1/C(=C/C(C)=O)Sc2ccc3c(c21)CCO3 [Compound 1, (Z)-1-[1-ethyl-7,8-dihydrobenzofuro[4,5-d]thiazol-2(1H)-ylidene]propan-2-one]
- inhibition of stress-induced phosphorylation of the tau protein in brain [1]: could inhibit the stress-induced phosphorylation of the tau protein
- oral absorbability (Oral absorbability): confirmed
- inhibitory effect on the growth of the cancer cells [2]: inhibitory effect
- Maximum blood concentration [3]: 1900 ng/mL
- Maximum brain tissue concentration [3]: 1700 ng/g
- Time to maximum concentration in blood and in brain tissue [3]: within 15 minutes
- Kp [3]: ~0.9
- half-life [3]: ≤ 1 h
- inhibitory effect on the phosphorylation of the tau protein ([4]; compounds at 0.3 to 10 μM): significant inhibitory effect
- inhibitory effect on the phosphorylation of the tau protein [4, 11]: significant inhibitory effect
- concentration at 7 min ([5]; cerebrospinal fluid, 7 minutes after administration): 1.88 µM
- concentration at 3 min ([5]; plasma, 3 minutes after administration): 13.5 µM
- IC50 (DYRK1A): 49 nM

SMILES: CCN1/C(=C/C(C)=O)Sc2ccc3occc3c21 [Compound 2, (Z)-1-[1-ethyl-7,8-benzofuro[4,5-d]thiazol-2(1H)-ylidene]propan-2-one]
- inhibition of stress-induced phosphorylation of the tau protein in brain [1]: could inhibit the stress-induced phosphorylation of the tau protein
- Maximum blood concentration [3]: 8400 ng/mL
- Maximum brain tissue concentration [3]: 8500 ng/g
- Time to maximum concentration in blood and in brain tissue [3]: 2 h
- Kp [3]: ~1
- half-life [3]: ≥ 4 h
- inhibitory effect on the phosphorylation of the tau protein ([4]; compounds at 0.3 to 10 μM): significant inhibitory effect
- reference memory in water maze (time to reach the platform) ([6]; 8th to 12th day): improved the reduced memory and learning abilities
- probe test (time spent around the platform) ([6]; 13th day): improved the reduced memory and learning abilities
- IC50 (DYRK1A): 40 nM

SMILES: O=C1NC(=S)S/C1=C\c1ccc2c(c1)CCO2 [Compound 4, (Z)-5-[(2,3-dihydrobenzofuran-5-yl)methylene]-2-thioxothiazolidin-4-one]
- inhibitory effect on the phosphorylation of the tau protein [4, 11]: inhibitory effect

SMILES: O=C1NC(=S)S/C1=C\c1ccc2oc3ccccc3c2c1 [Compound 6, (Z)-5-[(dibenzo[b,d]furan-2-yl)methylene]-2-thioxothiazolidin-4-one]
- inhibitory effect on the phosphorylation of the tau protein [4, 11]: significant inhibitory effect

SMILES: N=C1NC(=O)/C(=C/c2ccc3c(c2)CCO3)S1 [Compound 7, (Z)-5-[(2,3-dihydrobenzofuran-5-yl)methylene]-2-iminothiazolidin-4-one]
- inhibitory effect on the phosphorylation of the tau protein [4, 11]: significant inhibitory effect

SMILES: N=C1NC(=O)/C(=C/c2ccc3occc3c2)S1 [Compound 8, (Z)-5-[(benzofuran-5-yl)methylene]-2-iminothiazolidin-4-one]
- inhibitory effect on the phosphorylation of the tau protein [4, 11]: significant inhibitory effect

SMILES: N=C1NC(=O)/C(=C/c2ccc3oc4ccccc4c3c2)S1 [Compound 9, (Z)-5-[(dibenzo[b,d]furan-2-yl)methylene]-2-iminothiazolidin-4-one]
- inhibitory effect on the phosphorylation of the tau protein [4, 11]: inhibitory effect

SMILES: CCN1/C(=C/C(C)=O)Sc2ccc3oc4cc(C)c(C)cc4c3c21 [Compound 10, (Z)-1-(8,9-dimethyl-1-ethylbenzo[2,3]benzofuro[4,5-d]thiazol-2(1H)-ylidene)propan-2-one]
- inhibitory effect on the phosphorylation of the tau protein [4, 11]: inhibitory effect

SMILES: CCN1/C(=C/C(C)=O)Sc2ccc3oc4cc(C)ccc4c3c21 [Compound 11, (Z)-1-(1-ethyl-8-methylbenzo[2,3]benzofuro[4,5-d]thiazol-2(1H)-ylidene)propan-2-one]
- inhibitory effect on the phosphorylation of the tau protein [4, 11]: inhibitory effect

SMILES: CCN1/C(=C/C(C)=O)Sc2ccc3oc4ccc(C)cc4c3c21 [Compound 12, (Z)-1-(1-ethyl-9-methylbenzo[2,3]benzofuro[4,5-d]thiazol-2(1H)-ylidene)propan-2-one]
- apoptosis-inducing activity on the cancer cells [7]: excellent apoptosis-inducing activity
- apoptosis-inducing activity on the cancer cells (PC-9-GR-high lines): excellent apoptosis-inducing activity
- inhibitory effect on the phosphorylation of the tau protein [4, 11]: inhibitory effect
- apoptosis-inducing activity on the cancer cells [8]: excellent apoptosis-inducing activity

SMILES: CCN1/C(=C/C(C)=O)Sc2ccc3oc4cc(Cl)ccc4c3c21 [Compound 13, (Z)-1-(8-chloro-1-ethylbenzo[2,3]benzofuro[4,5-d]thiazol-2(1H)-ylidene)propan-2-one]
- inhibitory effect on the phosphorylation of the tau protein [4, 11]: inhibitory effect

SMILES: CCN1/C(=C/C(C)=O)Sc2ccc3oc4ccc(Cl)cc4c3c21 [Compound 14, (Z)-1-(9-chloro-1-ethylbenzo[2,3]benzofuro[4,5-d]thiazol-2(1H)-ylidene)propan-2-one]
- inhibitory effect on the phosphorylation of the tau protein [4, 11]: inhibitory effect

SMILES: O=C1NC(=S)N/C1=C\c1ccc2oc3ccccc3c2c1 [Compound 15, (Z)-5-[(dibenzo[b,d]furan-2-yl)methylene]-2-thioxoimidazolidin-4-one]
- inhibitory effect on the anchorage-independent growth [9]: inhibitory effect
- inhibitory effect on the anchorage-independent growth [10]: inhibitory effect
- inhibitory effect on the phosphorylation of the tau protein [4, 11]: inhibitory effect
